The supplement of paper PMC11208160

Assay: recombinant UMI read abundance after kanamycin selection (control-corrected) (log10(CPM+1)); higher = more efficient recombination; extreme values may be limits of the assay; sequences stand for … in AGTGCAGAGAAAATCGGCCAGTTTTCTCTGCCTGCAGTCCGCATGCCGTGGGACCCCTTGGGTTCTAACCTGTTGCCTAGATTTATGCAGCGGACTGCCTTTCTCCCAAAGTGATAAACCGG…AGGTTGGTTTCACT; site = the 11-nt donor
Method in brief: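 After plating on IPTG (0.07 mM) plus kanamycin, or unselected, in two replicates, recombinant UMIs were PCR-amplified across the donor–target junction and sequenced. The cells were Escherichia coli co-electroporated with a UMI-tagged donor and donor-binding-loop pair library and a target plasmid with a fixed target and T7-inducible IS621 bridge recombinase. Values are log10(CPM+1), with CPM averaged over replicates and scaled by control-derived factors.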
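Further: IS621 bridge recombinase in Escherichia coli cells against a fixed T5 target plasmid.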

| Sequence | recombinant UMI read abundance (log10) |
| --- | --- |
| ATAGGCCCATGGACCGGTTTTCCCGGTAATCCGTATTTGAA (site ATAGGCCCTTT) | 0.215 |
| ATAGGGCCATGGACCGGTTTTCCCGGTAATCCGTATTTGAC (site ATAAGGCCTGT) | 1.44 |
| ATAGGGCCATGGACCGGTTTTCCCGGTAATCCGTATTTGAC (site ATACGGCCTGT) | 0 |
| ATAGGGCCATGGACCGGTTTTCCCGGTAATCCGTATTTGAC (site ATAGGGCCTGT) | 0 |
| ATAGGGCCATGGACCGGTTTTCCCGGTAATCCGTATTTGAC (site ATATGGCCTGT) | 0 |
| ATAGGTCCATGGACCGGTTTTCCCGGTAATCCGTATTTGTT (site ATAGGTCCTAA) | 0.95 |
| ATAGGTGCATGGACCGGTTTTCCCGGTAATCCGTATTTGTC (site ATAGGTGCTGA) | 2.7 |
| ATAGTTCCATGGACCGGTTTTCCCGGTAATCCGTATTTGGA (site ATAGTTCCTTC) | 0.223 |
| ATATATACATGGACCGGTTTTCCCGGTAATCCGTATTTGAC (site ATATATACTGT) | 2.65 |
| ATATATACATGGACCGGTTTTCCCGGTAATCCGTATTTGAC (site ATCTATACTGT) | 0.727 |
| ATATATACATGGACCGGTTTTCCCGGTAATCCGTATTTGAC (site ATGTATACTGT) | 1.62 |
| ATATATACATGGACCGGTTTTCCCGGTAATCCGTATTTGAC (site ATTTATACTGT) | 0.227 |
| ATATCAACATGGACCGGTTTTCCCGGTAATCCGTATTTGTA (site ATATCAACTTA) | 1.61 |
| ATATGAACATGGACCGGTTTTCCCGGTAATCCGTATTTGAC (site ATATGAACTGT) | 2.9 |
| ATATTTGCATGGACCGGTTTTCCCGGTAATCCGTATTTGAC (site ATATTTGCTGT) | 2.1 |
| ATCACACCATGGACCGGTTTTCCCGGTAATCCGTATTTGTC (site ATCACACCTGA) | 0 |
| ATCACAGCATGGACCGGTTTTCCCGGTAATCCGTATTTGGG (site ATCACAGCTCC) | 0.00407 |
| ATCACCTCATGGACCGGTTTTCCCGGTAATCCGTATTTGCT (site ATCACCTCTAG) | 2.75 |
| ATCCAAACATGGACCGGTTTTCCCGGTAATCCGTATTTGAG (site ATCCAAACTCT) | 1.6 |
| ATCCAAACATGGACCGGTTTTCCCGGTAATCCGTATTTGAG (site ATCCAACCTCT) | 0.01 |
| ATCCAAACATGGACCGGTTTTCCCGGTAATCCGTATTTGAG (site ATCCAAGCTCT) | 0.432 |
| ATCCAAACATGGACCGGTTTTCCCGGTAATCCGTATTTGAG (site ATCCAATCTCT) | 0.352 |
| ATCCAACCATGGACCGGTTTTCCCGGTAATCCGTATTTGAG (site ATCCAAACTCT) | 0.0118 |

| Sequence | recombinant UMI read abundance (log10) |
| --- | --- |
| ATCCAACCATGGACCGGTTTTCCCGGTAATCCGTATTTGAG (site ATCCAACCTCT) | 0 |
| ATCCAACCATGGACCGGTTTTCCCGGTAATCCGTATTTGAG (site ATCCAAGCTCT) | 0.133 |
| ATCCAACCATGGACCGGTTTTCCCGGTAATCCGTATTTGAG (site ATCCAATCTCT) | 0.257 |
| ATCCAGGCATGGACCGGTTTTCCCGGTAATCCGTATTTGTG (site ATCCAGGCTCA) | 0.328 |
| ATCCCGGCATGGACCGGTTTTCCCGGTAATCCGTATTTGGG (site ATCCCGGCTCC) | 0.00576 |
| ATCCCTACATGGACCGGTTTTCCCGGTAATCCGTATTTGCA (site ATCCCTACTTG) | 1.81 |
| ATCCCTGCATGGACCGGTTTTCCCGGTAATCCGTATTTGTG (site ATCCCTGCTCA) | 0.13 |
| ATCCCTTCATGGACCGGTTTTCCCGGTAATCCGTATTTGTG (site ATCCCTTCTCA) | 0.0697 |
| ATCCGTCCATGGACCGGTTTTCCCGGTAATCCGTATTTGAC (site ATCCGTCCTGT) | 0.00623 |
| ATCCGTCCATGGACCGGTTTTCCCGGTAATCCGTATTTGAT (site AACCGTCCTAT) | 0.00762 |
| ATCCGTCCATGGACCGGTTTTCCCGGTAATCCGTATTTGAT (site ACCCGTCCTAT) | 0.0678 |
| ATCCGTCCATGGACCGGTTTTCCCGGTAATCCGTATTTGAT (site AGCCGTCCTAT) | 0.00385 |
| ATCCGTCCATGGACCGGTTTTCCCGGTAATCCGTATTTGAT (site ATCCGTCCTAT) | 0.0236 |
| ATCCTGACATGGACCGGTTTTCCCGGTAATCCGTATTTGAA (site ATCCTGACTTT) | 0.419 |
| ATCCTGGCATGGACCGGTTTTCCCGGTAATCCGTATTTGAA (site ATCCTGGCTTT) | 1.24 |
| ATCGAAGCATGGACCGGTTTTCCCGGTAATCCGTATTTGAG (site ATCAAAGCTCT) | 2.12 |
| ATCGAAGCATGGACCGGTTTTCCCGGTAATCCGTATTTGAG (site ATCCAAGCTCT) | 0.355 |
| ATCGAAGCATGGACCGGTTTTCCCGGTAATCCGTATTTGAG (site ATCGAAGCTCT) | 2.1 |
| ATCGAAGCATGGACCGGTTTTCCCGGTAATCCGTATTTGAG (site ATCTAAGCTCT) | 0.58 |
| ATCGACTCATGGACCGGTTTTCCCGGTAATCCGTATTTGAG (site ATCGACTCTCT) | 1.67 |
| ATCGAGTCATGGACCGGTTTTCCCGGTAATCCGTATTTGTA (site ATCGAGTCTTA) | 3.05 |
| ATCGATTCATGGACCGGTTTTCCCGGTAATCCGTATTTGAG (site ATCGATTCTCT) | 2.41 |
| ATCGGGACATGGACCGGTTTTCCCGGTAATCCGTATTTGTG (site ATCGGGACTCA) | 0.972 |

| Sequence | recombinant UMI read abundance (log10) |
| --- | --- |
| ATCTAAGCATGGACCGGTTTTCCCGGTAATCCGTATTTGAG (site ATCAAAGCTCT) | 0.792 |
| ATCTAAGCATGGACCGGTTTTCCCGGTAATCCGTATTTGAG (site ATCCAAGCTCT) | 1.93 |
| ATCTAAGCATGGACCGGTTTTCCCGGTAATCCGTATTTGAG (site ATCGAAGCTCT) | 0.367 |
| ATCTAAGCATGGACCGGTTTTCCCGGTAATCCGTATTTGAG (site ATCTAAGCTCT) | 2.16 |
| ATCTATACATGGACCGGTTTTCCCGGTAATCCGTATTTGCC (site ATCTATACTGA) | 1.23 |
| ATCTATACATGGACCGGTTTTCCCGGTAATCCGTATTTGCC (site ATCTATACTGC) | 0 |
| ATCTATACATGGACCGGTTTTCCCGGTAATCCGTATTTGCC (site ATCTATACTGG) | 2.12 |
| ATCTATACATGGACCGGTTTTCCCGGTAATCCGTATTTGCC (site ATCTATACTGT) | 0.46 |
| ATCTATACATGGACCGGTTTTCCCGGTAATCCGTATTTGTC (site ATCTATACTGA) | 2.8 |
| ATCTATACATGGACCGGTTTTCCCGGTAATCCGTATTTGTC (site ATCTATACTGC) | 0 |
| ATCTATACATGGACCGGTTTTCCCGGTAATCCGTATTTGTC (site ATCTATACTGG) | 0 |
| ATCTATACATGGACCGGTTTTCCCGGTAATCCGTATTTGTC (site ATCTATACTGT) | 0 |
| ATCTGATCATGGACCGGTTTTCCCGGTAATCCGTATTTGCT (site ATCTGATCTAG) | 2.71 |
| ATCTTGGCATGGACCGGTTTTCCCGGTAATCCGTATTTGCT (site ATCTTGGCTAG) | 0 |
| ATGAACTCATGGACCGGTTTTCCCGGTAATCCGTATTTGGG (site ATGAACTCTCC) | 1.08 |
| ATGAAGACATGGACCGGTTTTCCCGGTAATCCGTATTTGCT (site AGGAAGACTTG) | 0 |
| ATGAAGACATGGACCGGTTTTCCCGGTAATCCGTATTTGCT (site ATGAAGACTAG) | 2.82 |
| ATGAATACATGGACCGGTTTTCCCGGTAATCCGTATTTGCA (site AGGAAGACTTG) | 0 |
| ATGAATACATGGACCGGTTTTCCCGGTAATCCGTATTTGCA (site ATGAATACTTG) | 2.21 |
| ATGAATACATGGACCGGTTTTCCCGGTAATCCGTATTTGGC (site ATGAATACTGC) | 1.69 |
| ATGAATTCATGGACCGGTTTTCCCGGTAATCCGTATTTGGT (site ATGAATTCTAC) | 2.57 |
| ATGAGGACATGGACCGGTTTTCCCGGTAATCCGTATTTGGG (site ATGAGGACTCC) | 0.399 |
